Assay results published in patent US10844038B2, “1,2-dithiolane compounds useful in neuroprotection, autoimmune and cancer diseases and conditions” (SABILA BIOSCIENCES LLC, priority 2016, dated 2020).
Each block holds one compound with its values, some of them ahead of it.

Key:
MEK5 = MEK5 (Homo sapiens (Human), UniProt Q13163); assay: KINOMEscan competition binding assay (Kd); conditions: Table 9, read-out: Kd Values Against Representative MEK5 Kinase: MEK5
Procedure: (§1) KINOMEscan™ is based on a competition binding assay that quantitatively measures the ability of a test compound of the invention to compete with an immobilized, active-site directed ligand. The Kinase assay is performed by combining three components: DNA-tagged kinase; immobilized ligand; and a test compound. The ability of the test compound to compete with the immobilized ligand is measured via quantitative PCR of the DNA tag.
(§2) For most assays, kinase-tagged T7 phage strains were prepared in an E. coli host derived from the BL21 strain. E. coli were grown to log-phase and infected with T7 phage and incubated with shaking at 32° C. until lysis. The lysates were centrifuged and filtered to remove cell debris. The remaining kinases were produced in HEK-293 cells and subsequently tagged with DNA for qPCR detection. Streptavidin-coated magnetic beads were treated with biotinylated small molecule ligands for 30 minutes at room temperature to generate affinity resins for kinase assays. The liganded beads were blocked with excess biotin and washed with blocking buffer (SeaBlock (Pierce), 1% BSA, 0.05% Tween 20, 1 mM DTT) to remove unbound ligand and to reduce nonspecific binding. […] All reactions were performed in polystyrene 96-well plates in a final volume of 0.135 ml. […] The kinase concentration in the eluates was measured by qPCR.

mTOR = mTOR (Homo sapiens (Human), UniProt P42345); assay: KINOMEscan competition binding assay (Kd); conditions: read-out: Kd Values Against mTOR Kinase: mTOR
Procedure: as §1, §2

BTK = BTK (Homo sapiens (Human), UniProt Q06187); assay: KINOMEscan competition binding assay (Kd); conditions: read-out: Kd Values Against Representative TEC Family Kinases: BTK
Procedure: as §1, §2

FYN [1] = molecular target: T1, FYN (Homo sapiens (Human), UniProt P06241); assay: Radioisotope filter binding assay; format: biochemical; conditions: read-out: IC50 Activity Levels Against SRC Family Kinases: FYN
Procedure: (§3) 3. Radioisotope Filter Binding Assay:
(§4) In this assay format, it directly detects the true product without the use of modified substrates or coupling enzymes (Uitdehaag, J. C., et al. Br. J. Pharmacol. 2012, 166, 858-876; Hastie, C. J., et al. Nat. Protoc. 2006, 1, 968-971) according to equation 1. Substrate+[γ−^33P]−ATP→^33P-Substrate+ADP eq 1
(§5) The protocol calls for test compound of the invention to be incubated with kinase, substrate, cofactors, and radio-isotope-labeled ATP (^33P-gamma-ATP). The reaction mixtures are then spotted onto filter papers which bind the radioisotope labeled catalytic product. Unreacted phosphate is removed via washing. The reagents used include base reaction buffer; 20 mM Hepes (pH 7.5), 10 mM MgCl2, 1 mM EGTA, 0.02% Brij35, 0.02 mg/ml BSA, 0.1 mM Na3VO4, 2 mM DTT, 1% DMSO. The reaction procedure include the following steps: (1) prepare indicated substrate in freshly prepared base reaction buffer, (2) deliver any required cofactors to the substrate solution above, (3) deliver indicated kinase into the substrate solution and gently mix, (4) deliver compounds in DMSO into the kinase reaction mixture by Acoustic technology (Echo550; nanoliter range), incubate for 20 minutes at room temperature, (5) deliver ^33P-ATP (specific activity 10 μCi/μL) into the reaction mixture to initiate the reaction, (6) incubate kinase reaction for 2 hours at room temperature, (7) reactions are spotted onto P81 ion exchange paper, (8) detect kinase activity by filter-binding method.

BRAF = BRAF (Homo sapiens (Human), UniProt P15056); assay: KINOMEscan competition binding assay (Kd); conditions: read-out: Kd Values Against MAPK Pathway Kinases: BRAF
Procedure: as §1, §2

[2] = molecular target: Bruton Tyrosine Kinase (BTK) (Homo sapiens (Human), UniProt Q06187); assay: Rabbit reticulocyte lysate assay (KinaseSeeker competition binding); conditions: read-out: IC50 Activity Levels Against Bruton Tyrosine Kinase: BTK
Procedure: (§6) 1. Rabbit Reticulocyte Lysate Assay Design:
(§7) KinaseSeeker is a homogeneous competition binding assay where the displacement of an active site dependent probe by an inhibitor is measured by a change in luminescence signal. Luminescence readout translates into a highly sensitive and robust assay with low background and minimal interference from test compounds.
(§8) 10 mM stock solutions of test compounds were serially diluted in DMSO to make assay stocks. Prior to initiating IC50 determinations, the test compounds were evaluated for false positive against split-luciferase.
(§9) Each test compound was screened in duplicate against target kinase at 7 different concentrations. For kinase assays, Cfluc-kinase was translated along with Fos-Nfluc using a cell-free system (rabbit reticulocyte lysate) at 30° C. for 90 min. 24 uL aliquot of this lysate containing either 1 uL of DMSO (for no-inhibitor control) or compound solution in DMSO was incubated for 30 minutes at room temperature followed by 1 hour in presence of a kinase specific probe. 80 uL of luciferin assay reagent was added to each solution and luminescence was immediately measured on a luminometer.
(§10) The % Inhibition and % Activity Remaining was calculated using the following equation: % Inhibition=[(ALUControl−ALUSample)/ALUControl]×100 % Activity Remaining=100−% Inhibition
(§11) The % Activity was plotted against compound concentration and the IC50 was determined for each compound using a 7-point curve (Jester, B. W.; et. al. J. Am. Chem. Soc. 2010, 132, 11727-11735. Jester, B. W., et. al. J. Med. Chem. 2012, 55, 1526-1537). Biological activity of representative compounds of the disclosure are described in Table 5.

mTor/FRAP1 = mTor/FRAP1 (Homo sapiens (Human), UniProt P42345); assay: Radioisotope filter binding assay; format: biochemical; conditions: read-out: IC50 Activity Levels Against Various PI3K and mTor Kinases: mTor/FRAP1
Procedure: as §3, §4, §5

PI3K γ = PI3K γ (Homo sapiens (Human), UniProt P48736); assay: Radioisotope filter binding assay; format: biochemical; conditions: read-out: IC50 Activity Levels Against Various PI3K and mTor Kinases: PI3K γ
Procedure: as §3, §4, §5

PI3K α = PI3K α (Homo sapiens (Human), UniProt P42336); assay: Radioisotope filter binding assay; format: biochemical; conditions: read-out: IC50 Activity Levels Against Various PI3K and mTor Kinases: PI3K α
Procedure: as §3, §4, §5

PI3K β = PI3K β (Homo sapiens (Human), UniProt P42338); assay: Radioisotope filter binding assay; format: biochemical; conditions: read-out: IC50 Activity Levels Against Various PI3K and mTor Kinases: PI3K β
Procedure: as §3, §4, §5

YES1 = YES1 (Homo sapiens (Human), UniProt P07947); assay: Rabbit reticulocyte lysate assay (KinaseSeeker competition binding); conditions: at 1 μM, read-out: % Inhibition Against SRC Family Kinases: YES1
Procedure: as §6, §7, §8, §9, §10, §11

CSK = CSK (Homo sapiens (Human), UniProt P41240); assay: as above; conditions: read-out: % Inhibition Against SRC Family Kinases: CSK
Procedure: as §6, §7, §8, §9, §10, §11

SRC = SRC (Homo sapiens (Human), UniProt P12931); assay: as above; conditions: at 1 μM, read-out: % Inhibition Against SRC Family Kinases: SRC
Procedure: as §6, §7, §8, §9, §10, §11

HCK = HCK (Homo sapiens (Human), UniProt P08631); assay: as above; conditions: at 1 μM, read-out: % Inhibition Against SRC Family Kinases: HCK
Procedure: as §6, §7, §8, §9, §10, §11

LYN = LYN (Homo sapiens (Human), UniProt P07948); assay: as above; conditions: read-out: % Inhibition Against SRC Family Kinases: LYN
Procedure: as §6, §7, §8, §9, §10, §11

FYN [3] = molecular target: T1, FYN; assay: as above; conditions: read-out: % Inhibition Against SRC Family Kinases: FYN
Procedure: as §6, §7, §8, §9, §10, §11

FGR = FGR (Homo sapiens (Human), UniProt P09769); assay: as above; conditions: at 1 μM, read-out: % Inhibition Against SRC Family Kinases: FGR
Procedure: as §6, §7, §8, §9, §10, §11

Chain of BTK (Q06187 whole entry): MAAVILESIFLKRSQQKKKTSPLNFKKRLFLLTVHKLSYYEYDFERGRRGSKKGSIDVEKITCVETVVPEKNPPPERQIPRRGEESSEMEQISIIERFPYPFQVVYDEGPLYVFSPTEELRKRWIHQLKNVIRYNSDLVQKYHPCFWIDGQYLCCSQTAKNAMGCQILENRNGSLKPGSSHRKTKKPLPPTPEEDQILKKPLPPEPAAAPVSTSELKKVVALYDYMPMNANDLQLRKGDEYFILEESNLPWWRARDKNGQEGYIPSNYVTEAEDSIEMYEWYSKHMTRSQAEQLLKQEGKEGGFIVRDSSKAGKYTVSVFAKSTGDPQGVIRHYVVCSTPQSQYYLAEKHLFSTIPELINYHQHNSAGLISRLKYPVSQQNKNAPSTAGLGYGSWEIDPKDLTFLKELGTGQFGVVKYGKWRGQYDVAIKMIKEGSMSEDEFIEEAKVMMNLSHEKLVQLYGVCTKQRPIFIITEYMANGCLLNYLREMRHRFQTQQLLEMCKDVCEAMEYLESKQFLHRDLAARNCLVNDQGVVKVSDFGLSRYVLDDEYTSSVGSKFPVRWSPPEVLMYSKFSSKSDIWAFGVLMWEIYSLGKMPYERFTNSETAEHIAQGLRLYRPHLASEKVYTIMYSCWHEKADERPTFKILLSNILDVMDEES
Chain of MEK5 (Q13163 whole entry): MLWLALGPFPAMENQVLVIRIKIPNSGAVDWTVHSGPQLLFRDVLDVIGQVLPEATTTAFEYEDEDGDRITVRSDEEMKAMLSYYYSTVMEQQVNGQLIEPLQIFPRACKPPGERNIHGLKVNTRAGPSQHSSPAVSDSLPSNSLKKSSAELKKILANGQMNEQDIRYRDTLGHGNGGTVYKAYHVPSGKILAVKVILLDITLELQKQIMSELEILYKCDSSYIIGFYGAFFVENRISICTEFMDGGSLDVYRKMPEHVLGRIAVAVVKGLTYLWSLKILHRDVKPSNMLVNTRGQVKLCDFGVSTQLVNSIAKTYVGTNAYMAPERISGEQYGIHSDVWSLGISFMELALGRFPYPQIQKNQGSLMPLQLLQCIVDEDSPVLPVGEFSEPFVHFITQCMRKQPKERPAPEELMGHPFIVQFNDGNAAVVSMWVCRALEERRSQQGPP
T1 sequence (P06241 whole entry): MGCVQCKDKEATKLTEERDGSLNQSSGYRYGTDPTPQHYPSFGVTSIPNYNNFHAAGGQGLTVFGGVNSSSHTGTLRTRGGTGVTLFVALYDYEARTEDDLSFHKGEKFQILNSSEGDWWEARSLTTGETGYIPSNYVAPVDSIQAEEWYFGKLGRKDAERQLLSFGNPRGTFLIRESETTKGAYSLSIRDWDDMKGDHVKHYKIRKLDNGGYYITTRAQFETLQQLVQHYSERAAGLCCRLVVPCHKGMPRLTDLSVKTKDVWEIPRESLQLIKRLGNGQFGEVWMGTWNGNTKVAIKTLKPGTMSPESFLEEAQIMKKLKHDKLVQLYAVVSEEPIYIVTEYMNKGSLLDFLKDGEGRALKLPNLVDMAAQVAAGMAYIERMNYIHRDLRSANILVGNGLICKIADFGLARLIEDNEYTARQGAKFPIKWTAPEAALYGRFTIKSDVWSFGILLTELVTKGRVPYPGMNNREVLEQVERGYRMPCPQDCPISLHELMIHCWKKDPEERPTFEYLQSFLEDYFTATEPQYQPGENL
Chain of PI3K γ (P48736 whole entry): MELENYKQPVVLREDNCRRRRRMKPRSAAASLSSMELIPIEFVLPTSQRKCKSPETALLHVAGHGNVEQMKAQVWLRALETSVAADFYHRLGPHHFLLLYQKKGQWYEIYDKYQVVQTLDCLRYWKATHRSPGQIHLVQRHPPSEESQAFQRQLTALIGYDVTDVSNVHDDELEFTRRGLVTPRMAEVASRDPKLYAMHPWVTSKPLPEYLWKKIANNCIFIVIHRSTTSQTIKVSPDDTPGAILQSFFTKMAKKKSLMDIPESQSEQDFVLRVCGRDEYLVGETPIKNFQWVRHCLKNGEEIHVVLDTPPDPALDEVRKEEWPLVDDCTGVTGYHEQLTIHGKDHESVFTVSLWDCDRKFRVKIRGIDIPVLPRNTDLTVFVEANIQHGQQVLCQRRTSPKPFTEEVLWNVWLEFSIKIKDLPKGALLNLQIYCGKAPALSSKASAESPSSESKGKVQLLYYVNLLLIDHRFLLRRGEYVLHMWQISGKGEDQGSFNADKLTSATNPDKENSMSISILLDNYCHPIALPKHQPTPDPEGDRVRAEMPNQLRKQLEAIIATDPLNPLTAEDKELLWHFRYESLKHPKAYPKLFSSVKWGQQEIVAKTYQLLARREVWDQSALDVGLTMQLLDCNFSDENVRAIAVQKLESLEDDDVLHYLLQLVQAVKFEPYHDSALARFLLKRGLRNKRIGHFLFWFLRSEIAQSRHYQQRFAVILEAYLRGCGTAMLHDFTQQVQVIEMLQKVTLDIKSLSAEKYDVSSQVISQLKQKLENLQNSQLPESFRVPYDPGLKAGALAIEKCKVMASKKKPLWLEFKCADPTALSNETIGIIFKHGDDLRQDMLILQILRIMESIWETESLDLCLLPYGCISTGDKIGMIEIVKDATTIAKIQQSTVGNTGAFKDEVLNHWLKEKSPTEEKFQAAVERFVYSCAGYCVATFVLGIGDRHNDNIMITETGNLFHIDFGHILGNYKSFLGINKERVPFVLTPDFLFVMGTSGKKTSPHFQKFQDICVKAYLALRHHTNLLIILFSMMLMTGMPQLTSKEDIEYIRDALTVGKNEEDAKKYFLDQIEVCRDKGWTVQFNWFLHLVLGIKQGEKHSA
Chain of Bruton Tyrosine Kinase (BTK) (Q06187 whole entry): as the sequence (Q06187 whole entry) above
Chain of BRAF (P15056 whole entry): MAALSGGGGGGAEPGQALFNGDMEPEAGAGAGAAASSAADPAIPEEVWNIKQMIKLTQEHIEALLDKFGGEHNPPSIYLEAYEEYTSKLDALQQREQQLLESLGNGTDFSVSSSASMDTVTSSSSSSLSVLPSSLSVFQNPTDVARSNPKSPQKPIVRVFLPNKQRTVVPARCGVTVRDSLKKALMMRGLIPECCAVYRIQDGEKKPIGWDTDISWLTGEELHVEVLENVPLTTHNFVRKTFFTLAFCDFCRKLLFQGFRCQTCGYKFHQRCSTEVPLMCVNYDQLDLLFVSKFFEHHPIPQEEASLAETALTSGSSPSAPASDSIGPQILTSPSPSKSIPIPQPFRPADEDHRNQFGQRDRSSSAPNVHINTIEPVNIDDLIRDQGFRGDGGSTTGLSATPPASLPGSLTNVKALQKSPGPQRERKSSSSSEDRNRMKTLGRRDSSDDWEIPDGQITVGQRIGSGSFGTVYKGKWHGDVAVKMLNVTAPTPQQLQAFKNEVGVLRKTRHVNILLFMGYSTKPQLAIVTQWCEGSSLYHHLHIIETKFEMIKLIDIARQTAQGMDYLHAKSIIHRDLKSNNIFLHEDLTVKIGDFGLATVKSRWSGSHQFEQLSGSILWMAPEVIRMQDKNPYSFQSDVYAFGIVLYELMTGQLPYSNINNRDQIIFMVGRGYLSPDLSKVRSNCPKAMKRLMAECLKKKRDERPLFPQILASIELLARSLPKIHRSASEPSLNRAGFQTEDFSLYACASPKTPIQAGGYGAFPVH
Chain of YES1 (P07947 whole entry): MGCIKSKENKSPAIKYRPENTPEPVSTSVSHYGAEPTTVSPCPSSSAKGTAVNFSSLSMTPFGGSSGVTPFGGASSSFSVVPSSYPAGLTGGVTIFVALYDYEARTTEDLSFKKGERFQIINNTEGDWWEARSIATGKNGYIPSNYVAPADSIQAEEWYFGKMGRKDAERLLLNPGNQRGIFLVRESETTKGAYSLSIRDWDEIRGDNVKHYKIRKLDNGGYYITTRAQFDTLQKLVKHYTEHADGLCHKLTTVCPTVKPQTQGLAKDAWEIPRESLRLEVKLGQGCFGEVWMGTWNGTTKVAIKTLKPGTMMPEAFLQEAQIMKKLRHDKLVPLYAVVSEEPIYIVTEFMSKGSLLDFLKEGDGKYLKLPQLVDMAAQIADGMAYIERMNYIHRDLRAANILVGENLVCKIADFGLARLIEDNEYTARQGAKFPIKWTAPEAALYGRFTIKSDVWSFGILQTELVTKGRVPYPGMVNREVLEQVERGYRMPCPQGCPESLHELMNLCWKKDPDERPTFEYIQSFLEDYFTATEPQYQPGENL
Chain of FGR (P09769 whole entry): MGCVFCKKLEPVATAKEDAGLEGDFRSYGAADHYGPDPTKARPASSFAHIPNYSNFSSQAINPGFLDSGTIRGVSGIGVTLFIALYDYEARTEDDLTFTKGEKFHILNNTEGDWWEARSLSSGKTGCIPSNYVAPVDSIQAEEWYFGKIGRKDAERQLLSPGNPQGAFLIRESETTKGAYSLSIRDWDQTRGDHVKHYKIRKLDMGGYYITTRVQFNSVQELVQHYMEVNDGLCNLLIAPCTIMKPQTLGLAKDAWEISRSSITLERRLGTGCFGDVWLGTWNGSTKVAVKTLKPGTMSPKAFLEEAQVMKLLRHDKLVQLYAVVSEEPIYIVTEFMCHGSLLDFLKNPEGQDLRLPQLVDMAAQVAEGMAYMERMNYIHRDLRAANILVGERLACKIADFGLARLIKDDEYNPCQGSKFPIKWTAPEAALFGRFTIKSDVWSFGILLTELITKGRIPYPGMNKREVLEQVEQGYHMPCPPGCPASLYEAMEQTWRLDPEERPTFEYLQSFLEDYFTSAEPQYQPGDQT

Structure (SMILES): CO[C@@H]1CSS[C@H]1Cn1nc(-c2ccc(Oc3ccccc3)cc2)c2c(N)ncnc21 (relative stereo) [Example 37, trans 1-((4-Methoxy-1,2-dithiolan-3-yl)methyl)-3-(4-phenoxyphenyl)-1H-pyrazolo[3,4-d]pyrimidin-4-amine]
- Kd (mTOR): 1 to 10 µM
- Kd (MEK5): < 0.005 µM
- Kd (BTK): 0.005 to 0.099 µM
- IC50 (FYN [1]): 0.005 to 0.099 µM

Structure (SMILES): CO[C@H]1CSS[C@H]1Cn1nc(-c2ccc(Oc3ccccc3)cc2)c2c(N)ncnc21 (relative stereo) [Example 38, cis 1-((4-Methoxy-1,2-dithiolan-3-yl)methyl)-3-(4-phenoxyphenyl)-1H-pyrazolo[3,4-d]pyrimidin-4-amine]
- Kd (MEK5): < 0.005 µM
- Kd (BTK): 0.005 to 0.099 µM

Structure (SMILES): Nc1ncnc2c1c(-c1ccc(Oc3ccccc3)cc1)nn2C[C@@H]1SSC[C@H]1OCc1ccccc1 (relative stereo) [Example 39, trans 1-((4-(Benzyloxy)-1,2-dithiolan-3-yl)methyl)-3-(4-phenoxyphenyl)-1H-pyrazolo[3,4-d]pyrimidin-4-amine]
- Kd (MEK5): 0.005 to 0.099 µM
- Kd (BTK): 1 to 10 µM

Structure (SMILES): Nc1ncnc2c1c(-c1ccc(Oc3ccccc3)cc1)nn2C[C@@H]1SSC[C@H]1O (relative stereo) [Example 42, trans 3-((4-Amino-3-(4-phenoxyphenyl)-1H-pyrazolo[3,4-d]pyrimidin-1-yl)methyl)-1,2-dithiolan-4-ol]
- Kd (BRAF): 1 to 10 µM
- Kd (BTK): 0.005 to 0.099 µM
- IC50 [2]: 0.1 to 0.999 µM

Structure (SMILES): Nc1ncnc2c1c(-c1ccc(Oc3ccccc3)cc1)nn2C[C@@H]1SSC[C@@H]1O (relative stereo) [Example 45, cis 3-((4-Amino-3-(4-phenoxyphenyl)-1H-pyrazolo[3,4-d]pyrimidin-1-yl)methyl)-1,2-dithiolan-4-ol]
- Kd (BTK): 0.005 to 0.099 µM

Structure (SMILES): Nc1nc2cc(-c3nn(C[C@@H]4SSC[C@H]4OC(=O)c4ccccc4)c4ncnc(N)c34)ccc2o1 (relative stereo) [Example 55, trans 3-((4-Amino-3-(2-aminobenzo[d]oxazol-5-yl)-1H-pyrazolo[3,4-d]pyrimidin-1-yl)methyl)-1,2-dithiolan-4-yl benzoate]
- IC50 (mTor/FRAP1): 0.005 to 0.099 µM
- IC50 (PI3K γ): 1 to 10 µM
- IC50 (PI3K α): 0.1 to 0.999 µM
- IC50 (PI3K β): 1 to 10 µM

Structure (SMILES): COc1ccc(-c2nn(CC3SSCC3O)c3ncnc(N)c23)cc1 (stereo not shown) [36 B.]
- Kd (mTOR): 0.1 to 0.999 µM
- Kd (MEK5): 0.005 to 0.099 µM

Structure (SMILES): Nc1ncnc2c1c(-c1ccc(Oc3ccccc3)cc1)nn2C[C@@H]1SSC[C@H]1O [Example 43 A., (3S,4R)-3-((4-Amino-3-(4-phenoxyphenyl)-1H-pyrazolo[3,4-d]pyrimidin-1-yl)methyl)-1,2-dithiolan-4-ol]
- inhibition at 1 µM (YES1): 90%
- inhibition at 1 µM (CSK): 50%
- inhibition at 1 µM (SRC): 49%
- inhibition at 1 µM (HCK): 73%
- inhibition at 1 µM (LYN): 33%
- inhibition at 1 µM (FYN [3]): 33%
- inhibition at 1 µM (FGR): 84%

Structure (SMILES): Nc1ncnc2c1c(-c1ccc(Oc3ccccc3F)cc1)nn2CC1SSCC1O (stereo not drawn) [Example 63, trans 3-((4-Amino-3-(4-(2-fluorophenoxyphenyl)-1H-pyrazolo[3,4-d]pyrimidin-1-yl)methyl)-1,2-dithiolan-4-ol]
- IC50 (FYN [1]): 0.005 to 0.099 µM

Second part, the compound after the results:

- Kd (MEK5): 0.005 to 0.099 µM
Structure (SMILES): Nc1ncnc2c1c(-c1ccccc1)nn2C[C@@H]1SSC[C@H]1O (relative stereo) [Example 28, trans 3-((4-Amino-3-phenyl-1H-pyrazolo[3,4-d]pyrimidin-1-yl)methyl)-1,2-dithiolan-4-ol]

- Kd (MEK5): < 0.005 µM
Structure (SMILES): Nc1ncnc2c1c(-c1ccc(Cl)cc1)nn2C[C@@H]1SSC[C@H]1O (relative stereo) [Example 30, trans 3-((4-Amino-3-(4-chlorophenyl)-1H-pyrazolo[3,4-d]pyrimidin-1-yl)methyl)-1,2-dithiolan-4-ol]

- Kd (MEK5): 0.005 to 0.099 µM
- Kd (BTK): 0.1 to 0.999 µM
- IC50 (FYN [1]): 1 to 10 µM
Structure (SMILES): Nc1ncnc2c1c(-c1ccc(Oc3ccccc3)cc1)nn2C[C@@H]1SSC[C@@H]1OCc1ccccc1 (relative stereo) [Example 40, cis 1-((4-(Benzyloxy)-1,2-dithiolan-3-yl)methyl)-3-(4-phenoxyphenyl)-1H-pyrazolo[3,4-d]pyrimidin-4-amine]

- IC50 (mTor/FRAP1): 1 to 10 µM
Structure (SMILES): Nc1ncnc2c1c(C#Cc1ccccc1)nn2C[C@@H]1SSC[C@H]1O (relative stereo) [Example 52, trans 3-(4-Amino-3-(phenylethynyl)-1H-pyrazolo[3,4-d]pyrimidin-1-yl)methyl-1,2-dithiolan-4-ol]

- IC50 (mTor/FRAP1): 1 to 10 µM
Structure (SMILES): Nc1ncnc2c1c(C#Cc1ccccc1)nn2CC1SSCC1OC(=O)c1ccccc1 (stereo not drawn) [Example 51, trans 3-((4-Amino-3-(phenylethynyl)-1H-pyrazolo[3,4-d]pyrimidin-1-yl)methyl-1,2-dithiolan-4-yl benzoate]

- IC50 (FYN [1]): 0.005 to 0.099 µM
Structure (SMILES): Nc1ncnc2c1c(-c1ccc(Oc3ccccc3F)cc1)nn2CC1SSCC1OC(=O)c1ccccc1 (stereo not drawn) [Example 62, trans 3-((4-Amino-3-(4-(2-fluorophenoxyphenyl)-1H-pyrazolo[3,4-d]pyrimidin-1-yl)methyl)-1,2-dithiolan-4-yl benzoate]
